Measurements taken from PubChem BioAssay AID1963874 (Molecular Pharmacology Branch, DTP, NCI, 2024).

Tested on: 253994-281-T-J1-PDC KRAS-mutant spheroids with HUVEC/MSC, viability
Assay: Anticancer human tumor 253994-281-T-J1-PDC patient-derived colorectal carcinoma cell line growth inhibition [KRAS2]
Details: for IC50: curve of first compound; for viability, T/C: stronger effect = lower value
Method in brief: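 Combination screen of spheroid viability in tumor-cell co-cultures with endothelial (HUVEC) and mesenchymal stem cell stroma. Each agent was tested in half-log dilutions, topping at clinical Cmax or at 10 microM without a known Cmax.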

[1] = second compound 0.1 µM, first compound 0.0316 µM
[2] = second compound 0.1 µM, first compound 0.1 µM
[3] = second compound 0.1 µM, first compound 0.316 µM
[4] = second compound 0.1 µM, first compound 1 µM
[5] = second compound 0.1 µM, first compound 3.16 µM
[6] = second compound 0.1 µM, first compound 10 µM
[7] = second compound 0.316 µM, first compound 0.0316 µM
[8] = second compound 0.316 µM, first compound 0.1 µM
[9] = second compound 0.316 µM, first compound 0.316 µM
[10] = second compound 0.316 µM, first compound 1 µM
[11] = second compound 0.316 µM, first compound 3.16 µM
[12] = second compound 0.316 µM, first compound 10 µM
[13] = second compound 1 µM, first compound 0.0316 µM
[14] = second compound 1 µM, first compound 0.1 µM
[15] = second compound 1 µM, first compound 0.316 µM
[16] = second compound 1 µM, first compound 1 µM
[17] = second compound 1 µM, first compound 3.16 µM
[18] = second compound 1 µM, first compound 10 µM
[19] = second compound 3.16 µM, first compound 0.0316 µM
[20] = second compound 3.16 µM, first compound 0.1 µM
[21] = second compound 3.16 µM, first compound 0.316 µM
[22] = second compound 3.16 µM, first compound 1 µM
[23] = second compound 3.16 µM, first compound 3.16 µM
[24] = second compound 3.16 µM, first compound 10 µM
[25] = second compound 10 µM, first compound 0.0316 µM
[26] = second compound 10 µM, first compound 0.1 µM
[27] = second compound 10 µM, first compound 0.316 µM
[28] = second compound 10 µM, first compound 1 µM
[29] = second compound 10 µM, first compound 3.16 µM
[30] = second compound 10 µM, first compound 10 µM
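Further: spheroids exposed to agents for seven days before readout.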
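Wherever viability, T/C is given: percent of DMSO vehicle control viability.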

Row | SMILES | IC50 (second compound 0.1 µM) | IC50 (second compound 0.316 µM) | IC50 (second compound 1 µM) | IC50 (second compound 3.16 µM) | IC50 (second compound 10 µM) | viability, T/C [1] | viability, T/C [2] | viability, T/C [3] | viability, T/C [4] | viability, T/C [5] | viability, T/C [6] | viability, T/C [7] | viability, T/C [8] | viability, T/C [9] | viability, T/C [13] | viability, T/C [14] | viability, T/C [19] | viability, T/C [20] | viability, T/C [25] | viability, T/C [26] | further results
1 | Cn1nccc1Nc1nccc(-c2cc3c(s2)C(C)(C)N(CCN2CCOCC2)C3=O)n1 + C=CC(=O)N1CCN(c2nc(=O)n(-c3c(C)ccnc3C(C)C)c3nc(-c4c(O)cccc4F)c(F)cc23)C(C)C1 | 2.39 µM | 3.04 µM | 2.77 µM | 2.48 µM | 3 µM | 97.8% | 105% | 85.6% | 68.6% | 45% | 26.1% | 102% | 110% | 86.3% | 90.2% | 87.6% | 87% | 94.2% | 84.2% | 80.5% | viability, T/C [10]: 78.7%; viability, T/C [11]: 46.7%; viability, T/C [12]: 32.8%; viability, T/C [15]: 81.7%; viability, T/C [16]: 73.6%; viability, T/C [17]: 46.3%; viability, T/C [18]: 26.7%; viability, T/C [21]: 86.4%; viability, T/C [22]: 72.1%; viability, T/C [23]: 44.1%; viability, T/C [24]: 33.8%; viability, T/C [27]: 96.7%; viability, T/C [28]: 75%; viability, T/C [29]: 49.6%; viability, T/C [30]: 35.4%
2 | CN(C)C/C=C/C(=O)Nc1cc2c(Nc3ccc(F)c(Cl)c3)ncnc2cc1O[C@H]1CCOC1 + CC1OCC2(CCN(c3cnc(Sc4ccnc(N)c4Cl)c(N)n3)CC2)C1N | > 0.1 µM | 0.0865 µM | > 0.1 µM | < 0.000316 µM | > 0.1 µM | 81.4% | 58.5% | – | – | – | – | 74% | 47% | – | 86.2% | 83.5% | 37.6% | 31.4% | 83.7% | 65.7% | viability, T/C (second compound 0.1 µM, first compound 0.000316 µM): 85.5%; viability, T/C (second compound 0.1 µM, first compound 0.001 µM): 74.8%; viability, T/C (second compound 0.1 µM, first compound 0.00316 µM): 91.2%; viability, T/C (second compound 0.1 µM, first compound 0.01 µM): 79.3%; viability, T/C (second compound 0.316 µM, first compound 0.000316 µM): 57.1%; viability, T/C (second compound 0.316 µM, first compound 0.001 µM): 72.1%; viability, T/C (second compound 0.316 µM, first compound 0.00316 µM): 79.6%; viability, T/C (second compound 0.316 µM, first compound 0.01 µM): 70.6%; viability, T/C (second compound 1 µM, first compound 0.000316 µM): 79%; viability, T/C (second compound 1 µM, first compound 0.001 µM): 97%; viability, T/C (second compound 1 µM, first compound 0.00316 µM): 79.5%; viability, T/C (second compound 1 µM, first compound 0.01 µM): 86.3%; viability, T/C (second compound 3.16 µM, first compound 0.000316 µM): 31.1%; viability, T/C (second compound 3.16 µM, first compound 0.001 µM): 37.2%; viability, T/C (second compound 3.16 µM, first compound 0.00316 µM): 37.3%; viability, T/C (second compound 3.16 µM, first compound 0.01 µM): 42.9%; viability, T/C (second compound 10 µM, first compound 0.000316 µM): 75.4%; viability, T/C (second compound 10 µM, first compound 0.001 µM): 102%; viability, T/C (second compound 10 µM, first compound 0.00316 µM): 78.1%; viability, T/C (second compound 10 µM, first compound 0.01 µM): 106%
3 | COc1cc2nccc(Oc3ccc(NC(=O)C4(C(=O)Nc5ccc(F)cc5)CC4)cc3)c2cc1OC + CNCc1ccccc1-c1csc(C(C)Nc2nc(C)nc3cc(OC)c(OC)cc23)c1 | > 10 µM | 5.3 µM | 3.47 µM | < 0.0316 µM | < 0.0316 µM | 99.4% | 99.1% | 83.8% | 85% | 94.5% | 61.1% | 98.2% | 92% | 84.9% | 93.3% | 87.4% | 43.2% | 45.6% | 0.13% | 0.14% | viability, T/C [10]: 96.6%; viability, T/C [11]: 68%; viability, T/C [12]: 28%; viability, T/C [15]: 85.1%; viability, T/C [16]: 85.7%; viability, T/C [17]: 53.9%; viability, T/C [18]: 5.85%; viability, T/C [21]: 49.7%; viability, T/C [22]: 25%; viability, T/C [23]: 12.3%; viability, T/C [24]: 0.16%; viability, T/C [27]: 0.13%; viability, T/C [28]: 0.13%; viability, T/C [29]: 0.29%; viability, T/C [30]: 0.16%
4 | COc1cc2nccc(Oc3ccc(NC(=O)C4(C(=O)Nc5ccc(F)cc5)CC4)cc3)c2cc1OC + COc1cc2nc(C)nc(NC(C)c3cc(N)cc(C(F)(F)F)c3)c2cc1OC1CCOC1 | > 10 µM | > 10 µM | 5.93 µM | 4.91 µM | 5.18 µM | 99.1% | 101% | 118% | 89.4% | 87.6% | 52.2% | 106% | 110% | 113% | 101% | 106% | 99.6% | 97.3% | 93.8% | 89.1% | viability, T/C [10]: 109%; viability, T/C [11]: 92.2%; viability, T/C [12]: 59.3%; viability, T/C [15]: 101%; viability, T/C [16]: 92.5%; viability, T/C [17]: 76.4%; viability, T/C [18]: 28.3%; viability, T/C [21]: 109%; viability, T/C [22]: 104%; viability, T/C [23]: 70.2%; viability, T/C [24]: 17.7%; viability, T/C [27]: 86.5%; viability, T/C [28]: 82.3%; viability, T/C [29]: 81.7%; viability, T/C [30]: 7.51%
